Test results as given in ChEMBL document CHEMBL4334498, “Structures, NMR Spectroscopic Features, and Cytotoxic Properties of Oligomeric Hellinoyl (m-GO-m-GOG)-Type Ellagitannins from the Galls of Tamarix aphylla” (J Nat Prod, 2019).

How the values were obtained:
[1] = Cytotoxicity against human Pulp Cell cells assessed as reduction in cell viability incubated for 48 hrs by MTT assay; format: cell-based
[2] = Cytotoxicity against human HGF cells assessed as reduction in cell viability incubated for 48 hrs by MTT assay; format: cell-based
[3] = Cytotoxicity against human HPLF cells assessed as reduction in cell viability incubated for 48 hrs by MTT assay; format: cell-based
[4] = test system: Ca9-22; experiment: Cytotoxicity against human Ca9-22 cells assessed as reduction in cell viability incubated for 48 hrs by MTT assay; format: functional; conditions: Ca9-22, 48 h
[5] = test system: HSC-4; experiment: Cytotoxicity against human HSC4 cells assessed as reduction in cell viability incubated for 48 hrs by MTT assay; format: functional; conditions: HSC-4, 48 h
[6] = test system: HSC-2; experiment: Cytotoxicity against human HSC2 cells assessed as reduction in cell viability incubated for 48 hrs by MTT assay; format: functional; conditions: HSC-2, 48 h

Row | Compound | CC50 at 48 h [1] [µM] | CC50 at 48 h [2] [µM] | CC50 at 48 h [3] [µM] | CC50 [4] [µM] | CC50 [5] [µM] | CC50 [6] [µM]
1 | O=C(O)c1cc(O)c(O)c(Oc2c(C(=O)O)cc(Oc3c(C(=O)O)cc(O)c(O)c3O)c(O)c2O)c1 | > 395 | > 395 | > 395 | 345 | 153 | 246
2 | O=C(O[C@@H]1O[C@@H]2COC(=O)c3cc(O)c(O)c(O)c3-c3c(cc(O)c(O)c3O)C(=O)O[C@H]2[C@H](OC(=O)c2cc(O)c(O)c(O)c2)[C@H]1OC(=O)c1cc(O)c(O)c(O)c1Oc1cc(C(=O)O[C@@H]2O[C@@H]3COC(=O)c4cc(O)c(O)c(O)c4-c4c(cc(O)c(O)c4O)C(=O)O[C@H]3[C@H](OC(=O)c3cc(O)c(O)c(O)c3)[C@H]2OC(=O)c2cc(O)c(O)c(O)c2Oc2cc3c(c(O)c2O)Oc2cc(cc(O)c2O)C(=O)O[C@@H]2O[C@@H]4COC(=O)c5cc(O)c(O)c(O)c5-c5c(cc(O)c(O)c5O)C(=O)O[C@H]4[C@H](OC(=O)c4cc(O)c(O)c(O)c4)[C@H]2OC3=O)cc(O)c1O)c1cc(O)c(O)c(Oc2c(C(=O)O[C@H]3C(O)O[C@@H]4COC(=O)c5cc(O)c(O)c(O)c5-c5c(cc(O)c(O)c5O)C(=O)O[C@H]4[C@@H]3OC(=O)c3cc(O)c(O)c(O)c3)cc(O)c(O)c2O)c1 (stereo not given in full) | > 56 | > 56 | > 56 | 35 | 24 | 25
3 | O=C(O[C@@H]1O[C@@H]2COC(=O)c3cc(O)c(O)c(O)c3-c3c(cc(O)c(O)c3O)C(=O)O[C@H]2[C@H](OC(=O)c2cc(O)c(O)c(O)c2)[C@H]1OC(=O)c1cc(O)c(O)c(O)c1Oc1cc2c(c(O)c1O)Oc1cc(cc(O)c1O)C(=O)O[C@@H]1O[C@@H]3COC(=O)c4cc(O)c(O)c(O)c4-c4c(cc(O)c(O)c4O)C(=O)O[C@H]3[C@H](OC(=O)c3cc(O)c(O)c(O)c3)[C@H]1OC2=O)c1cc(O)c(O)c(Oc2c(C(=O)O[C@H]3C(O)O[C@@H]4COC(=O)c5cc(O)c(O)c(O)c5-c5c(cc(O)c(O)c5O)C(=O)O[C@H]4[C@@H]3OC(=O)c3cc(O)c(O)c(O)c3)cc(O)c(O)c2O)c1 (stereo not given in full) | > 75 | > 75 | > 75 | 27 | 26 | 23
4 | O=C(OC[C@H]1O[C@H]2OC(=O)c3cc(O)c(O)c(c3)Oc3c(cc(Oc4c(C(=O)O[C@H]5[C@H](OC(=O)c6cc(O)c(O)c(O)c6)O[C@@H]6COC(=O)c7cc(O)c(O)c(O)c7-c7c(cc(O)c(O)c7O)C(=O)O[C@H]6[C@@H]5OC(=O)c5cc(O)c(O)c(O)c5)cc(O)c(O)c4O)c(O)c3O)C(=O)O[C@@H]2[C@@H](OC(=O)c2cc(O)c(O)c(O)c2)[C@@H]1O)c1cc(O)c(O)c(O)c1 | > 116 | > 116 | > 116 | 25 | 21 | 21
5 | COc1cccc2c1C(=O)c1c(O)c3c(c(O)c1C2=O)C[C@@](O)(C(=O)CO)C[C@@H]3O[C@H]1C[C@H](N)[C@H](O)[C@H](C)O1 [DOXORUBICIN] | > 10 | > 10 | > 10 | 0.7 | 0.1 | 
6 | O=c1[nH]cc(F)c(=O)[nH]1 [FLUOROURACIL] | > 1000 | > 1000 | > 1000 | 262 | 25 | 47
